Test results: patent US20200138921A1, “METHODS OF PREVENTING AND TREATING DISEASES CHARACTERIZED BY SYNAPTIC DYSFUNCTION AND NEURODEGENERATION INCLUDING ALZHEIMER'S DISEASE” (The Trustees of Columbia University in the City of New York, priority 2017, published 2020)
One block for each molecule: values may come before it.

Legend:
PSD95 = assay: Western blot of PSD95 in hippocampal neurons; type: cell-based, rat; settings: neurons pretreated with 300 nM TOP, oAβ for 24 hours
Experimental: (§1) Whole frozen mouse hippocampi, human brain specimens, and cultured cells were homogenized in RIPA buffer (ThermoFisher) supplemented with protease and phosphatase inhibitor cocktail (ThermoFisher), using a Teflon dounce homogenizer and centrifuged at 14,000 rpm for 10 minutes at 4° C. Supernatants were collected, normalized by BCA assay (ThermoFisher), and prepared for loading using sample buffer (SB) 4× (ThermoFisher) and dithiothreitol (DTT) 10× (ThermoFisher).
(§2) To further test whether increasing Ube3A could rescue the effects of oAβ, cultured primary hippocampal neurons (14 DIV) were pretreated with 300 nM of TOP or control PBS. The neurons were then treated with oAβ for 24 hours, and whole cell lysates prepared for Western blot analysis, or fixed for microscopy.
(§3) Cells were also assessed for localization of PSD95 and NMDAR1, markers of postsynaptic terminals. Cells treated with TOP had increased levels of PSD95 and NMDAR1 (FIGS. 11B and 11C).

NMDAR1 = assay: Western blot of NMDAR1 in hippocampal neurons; type: cell-based, rat; settings: neurons pretreated with 300 nM TOP, oAβ for 24 hours
Experimental: as §1, §2, §3

Ube3A = Ube3A protein in hippocampus of wild-type mice after a single TOP injection; type: in vivo; settings: single bilateral hippocampal injection of TOP 275 μg
Experimental: as §1
Controls were wild type mice injected with PBS.

wild-type mice = assay: Morris water maze in wild-type mice; type: in vivo; settings: single TOP injection 275 μg, vs PBS-injected mice
Experimental: (§4) Mice were trained to find a hidden platform in a circular pool of 1.10 m diameter located in a room with extra maze cues. The location of the platform ([…] diameter) was constant for each mouse during training and was placed 1 cm beneath the surface of the water, maintained at 24° C.±2° C. throughout the duration of the test. At the end of test, the mice were dried off and placed in a clean cage with extra paper towels to prevent hypothermia Animals were then monitored inside their cage until eating, drinking, and ambulating normally Mice were trained in sessions consisting of four trials a day for five consecutive days. Mice started from different quadrants on a random basis during each trial and all four quadrants were used on any given day. The maximum swimming time allowed on each trial was 60 seconds.
(§5) Probe trials (1 session: 1 trials/session) were conducted 24 hours after the last training trial. During the probe test the platform was removed and mice were free to swim in the pool for 60 seconds. Time spent in each quadrant was measured. Trial and probe test sessions were recorded and analyzed with a video tracking system (Noldus). After the probe, mice were tested in the visible test for two consecutive days, 2 sessions/day with 3 trials/session to assess whether the mice were able to locate a visible platform (its location varied between the three trials of the same session). […]

J20 mice [1] = assay: Morris water maze in J20 AD mice; type: in vivo; settings: single TOP injection 275 μg
Description: The J20 transgenic mouse line also used in the studies expresses a mutated human APP (hAPP: K670N/M671L and V717F) under the control of the platelet-derived growth factor promoter (Mucke et al. 2000). These mice have deficits in learning and memory, inhibition of long-term potentiation, loss of dendritic spines, profuse amyloid plaques, and increased phosphorylation of the tau protein. These mice also have increased RhoA-GTP activity and progressive decrease in spinal density when treated with oligomeric Aβ. See Pozueta et al. 2013.
as §4
as §5, with “session). The ability of the mice to locate a clearly visible platform was also tested in order to exclude differences in vision, swim speed, and motivation.” for “session).”

J20 mice [2] = assay: Long-term potentiation recordings, hippocampal slices of J20 mice; type: in vivo; settings: single TOP injection 275 μg, vs PBS treated J20 mice
Experimental: Long-term potentiation (LTP) recordings were performed by positioning glass electrodes filled with artificial cerebrospinal fluid (ACSF) in the CA1 stratum radiatum to record Field Excitatory Post-Synaptic Potentials (fEPSPs) evoked by local stimulation (0.1 ms) of Schaffer collateral fibers using a bipolar concentric electrode placed laterally to the recoding electrode (approximately 150 μm). Following a steady baseline of 15 minutes, potentiation was induced with three theta-burst stimulations (TBS; 15 second interval), each one involving a single train of 10 bursts at 5 Hz, where each burst was composed of four pulses at 100 Hz (strong stimulation). The fEPSP slopes following tetanic stimulation were normalized to the average of the slopes of the fEPSPs acquired during the baseline.
Controls were wild-type mice and J20 mice injected with PBS.

phospho-tau = assay: Western blot of phospho-tau in J20 mice; type: in vivo; settings: TOP treated J20 mice vs control J20
Description: All chemicals used were of the highest grade available. Antibodies used include the following: rabbit anti-Ube3A (Cell Signaling), mouse anti-RhoA (Santa Cruz), rabbit anti-Arc (Santa Cruz), mouse anti-GluR1 (Millipore), rabbit anti-Ephexin-5 (Pierce and Abcam), rabbit anti-phospho-c-Abl (Cell Signaling), rabbit anti-GAPDH (Cell Signaling), rabbit anti-HA (Cell Signaling), anti-PSD95 (Cell Signaling), rabbit anti-NMDAR1 (Millipore), and anti-phospho-tau PHF13 (Cell Signaling).
as §1

[3] = system: primary hippocampal neurons; type: cell-based, rat; settings: neurons 21 DIV, oAβ for 24 hours (data not shown)
c-Abl = assay: Western blot of phosphorylated c-Abl; type: cell-based, rat; settings: oAβ treated vs vehicle (FIG. 4)
Description: FIG. 4A is a quantification of Western blots of phosphorylated c-Abl in vehicle treated (control) and DPH treated hippocampal neurons. FIG. 4B is a quantification of Western blots of phosphorylated Ube3A in vehicle treated (control) and DPH treated hippocampal neurons. […] FIG. 4D is a quantification from Western blots of phosphorylated Ube3A in vehicle treated (control), oAβ treated, and oAβ with STI treated hippocampal neurons. Graphs represent mean values and standard deviation. Significance determined by unpaired student's t-test in FIGS. 4A and 4B, and one-way ANOVA followed by Tukey Post Hoc multiple comparisons in FIGS. 4C and 4D.
It was hypothesized that oAβ could affect the ligase function of Ube3A. One important regulatory mechanism of Ube3A is through c-Abl-mediated phosphorylation tyrosine residue 636 (Y636), which impairs its E3 ligase activity (Chan et al. 2013). […] Since phospho-Ube3A antibodies are not available it was decided to test the hypothesis in B35 neuroblastoma cell line overexpressing HA-tagged Ube3A for immunoprecipitation.

EphB2 = assay: Western blot of surface expressed EphB2 in hippocampal neurons; type: cell-based, rat; settings: oAβ treated
Experimental: Enriched primary rat hippocampal neurons, cultured for 21 days in vitro, were treated with synthetic soluble oligomeric Aβ1-42 (hereinafter “oAβ”) for 24 hours. No cell death was detected under these conditions (data not shown).
Since Ube3A is also expressed in astrocytes (Grier et al. 2015), it was determined whether Ube3A levels were also altered in these cells.

Ephexin-1 = assay: Levels or activities of Ephexin-1 in hippocampal neurons; type: cell-based, rat; settings: hippocampal neurons treated with oAβ (results not shown)

motor functions or motivation (J20 mice [1]; speed and time to platform): no effect
Molecule: CC[C@@]1(O)C(=O)OCc2c1cc1n(c2=O)Cc2cc3c(CN(C)C)c(O)ccc3nc2-1 [TOP, topotecan]
levels of PSD95 (PSD95): increased
levels of NMDAR1 (NMDAR1): increased
persistence of increased Ube3A expression after the single injection (Ube3A): up to 5 months
Ube3A expression in the hippocampus (Ube3A; after 1 month): sustained increase
memory (Morris Water Maze) (wild-type mice): significant enhancement
learning (Morris water maze latency to platform) (J20 mice [1]): did not affect
memory (Morris water maze time in target quadrant) (J20 mice [1]): significantly increased
LTP in hippocampal slices (J20 mice [2]): Enhancement
phospho-tau levels (phospho-tau): decreased

Molecule: oAβ: synthetic soluble oligomeric Aβ1-42
cell death [3]: No cell death
c-Abl phosphorylation (c-Abl): induces
levels of surface expressed EphB2 protein (EphB2): decrease
levels or activities of Ephexin-1 (Ephexin-1): no observation of any differences
